Where two headings read alike, the source gives them in different places.
Target: T1, MST-4 (Homo sapiens, UniProt Q9P289)
T1 construct: purchased ReactionBiology
Assay: Kinase activity test (ReactionBiology), % enzyme activity relative to DMSO;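 note: marketed FDA-approved drugs screened at 10 µM and 1 µM against a ten-kinase panel, remaining activity given as percent of DMSO controls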
Assay type: biochemical
Details: MST4

[1] = Average, read-out: % Enzyme Activity (relative to DMSO controls), Average
[2] = replicate Data 1, read-out: % Enzyme Activity (relative to DMSO controls), Data 1
[3] = replicate Data 2, read-out: % Enzyme Activity (relative to DMSO controls), Data 2

T1 sequence (Q9P289 whole entry): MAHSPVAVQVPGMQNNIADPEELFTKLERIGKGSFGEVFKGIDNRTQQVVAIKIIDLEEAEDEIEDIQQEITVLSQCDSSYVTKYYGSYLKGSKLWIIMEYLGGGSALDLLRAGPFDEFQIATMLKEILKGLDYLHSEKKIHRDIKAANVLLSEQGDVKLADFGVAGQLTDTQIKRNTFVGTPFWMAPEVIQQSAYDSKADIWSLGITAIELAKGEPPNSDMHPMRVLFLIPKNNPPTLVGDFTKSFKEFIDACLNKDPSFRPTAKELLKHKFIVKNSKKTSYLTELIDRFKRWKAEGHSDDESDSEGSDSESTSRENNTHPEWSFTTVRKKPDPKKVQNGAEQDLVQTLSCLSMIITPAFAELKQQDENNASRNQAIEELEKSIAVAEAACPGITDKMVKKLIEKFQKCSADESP

SMILES: Nc1ncnc2c1ncn2[C@@H]1O[C@H](CO)[C@@H](O)[C@H]1O [Adenosine, reference compound]
- remaining activity at 1 µM [1]: 91.7%
- remaining activity at 1 µM [2]: 92.1%
- remaining activity at 1 µM [3]: 91.2%
- remaining activity at 10 µM [1]: 78.5%
- remaining activity at 10 µM [2]: 69.9%
- remaining activity at 10 µM [3]: 87.1%

— paper PMC7252619 (PLoS ONE, 2020)
